Reference: patent US9090652B2, “Bile acid derivatives as FXR ligands for the prevention or treatment of FXR-mediated diseases or conditions” (Intercept Pharmaceuticals, Inc., priority 2006, dated 2015)
≈ marks a conversion by molar mass, not a printed value. Entries after “also recorded” stand apart in the source; their conditions may differ. Counter-ions that a name gives are not always drawn. Like-named read-outs stand apart in the source and are kept apart here. Marks after values point to notes of the source that are not given here.

Legend:
[1] = biological target: T1, bovine serum albumin (Bos taurus, UniProt P02769); assay: Albumin binding by equilibrium dialysis; assay type: in vitro ADME; details: 100 μM BA in 5% bovine serum albumin-saline, 25° C.
T1 construct: 5% bovine serum albumin-saline solution
T1 sequence (P02769 25-607): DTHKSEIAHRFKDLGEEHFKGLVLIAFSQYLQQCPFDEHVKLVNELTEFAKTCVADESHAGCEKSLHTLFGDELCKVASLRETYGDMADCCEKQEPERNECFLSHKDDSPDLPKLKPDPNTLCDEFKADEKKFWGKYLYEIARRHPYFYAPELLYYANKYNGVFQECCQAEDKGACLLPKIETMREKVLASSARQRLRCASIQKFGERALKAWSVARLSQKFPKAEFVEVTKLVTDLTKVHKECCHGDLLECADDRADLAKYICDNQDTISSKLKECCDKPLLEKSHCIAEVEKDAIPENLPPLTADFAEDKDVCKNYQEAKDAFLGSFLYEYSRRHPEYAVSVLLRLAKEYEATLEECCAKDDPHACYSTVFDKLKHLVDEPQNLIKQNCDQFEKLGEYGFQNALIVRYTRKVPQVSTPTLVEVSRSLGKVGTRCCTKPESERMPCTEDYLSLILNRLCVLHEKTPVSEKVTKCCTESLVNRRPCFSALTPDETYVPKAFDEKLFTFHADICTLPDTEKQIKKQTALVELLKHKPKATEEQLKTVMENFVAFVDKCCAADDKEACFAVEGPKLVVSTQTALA
Experimental: Albumin binding was evaluated by equilibrium dialysis at a fixed BA-albumin ratio. BA was dissolved at a concentration of 100 μM in 5% bovine serum albumin-saline solution and left to stand for 24 h at 25° C. Two ml of this solution was dialyzed in cellulose sacs having a molecular weight cut-off of 12-14,000 against 25 ml of saline solution. The system was equilibrated by mechanical shaking for 72 h at 25° C. BA concentrations of the dialyzed solution and of the starting solution were determined with HPLC-ESI-MS/MS in the same conditions of the previous analysis.

[2] = Hepatic metabolism and biliary secretion in bile fistula rat after iv infusion; assay type: in vivo; details: for Main form / hepatic metabolite secreted in bile: at the administered dose
Experimental: The BA were administered by infusion to bile fistula rat and bile collected at 15 min intervals for 7 hours. The bile flow was measured and bile analyzed using HPLC-ES-MS-MS for the identification of the rate of biliary secretion and to evaluate the major hepatic metabolites.
Bile acids and their metabolites were determined by a liquid chromatography-tandem mass spectrometry (HPLC-MS/MS) method using electrospray (ESI) source in negative ionization mode. Rat bile samples were brought to room temperature and diluted 1:100 v/v-1:1000 v/v with 15 mM ammonium acetate buffer (pH=5). Then, 10 μL were injected into the chromatographic column. Liquid chromatography was performed using a Waters Alliance 2695 separation module coupled with autosampler. Bile acids were analyzed using a Synergi Hydro-RP C18 column (150×2.0 mm i.d., 4 μm particle size), protected by a SecurityGuard ODS 4×2.0 mm i.d. precolumn, both supplied from Phenomenex. Bile acids were separated in elution gradient using 15 mM ammonium acetate buffer (pH=5.00) as mobile phase A and acetonitrile as mobile phase B. Mobile phase B was increased from 30% to 64% in 12 min, then to 70% in 8 min, and finally brought to 100% in 10 min and held constant for 1 min. […] The column effluent was analysed by ESI-MS/MS using a Quattro-LC (Micromass) triple quadruple mass spectrometer operating in Multiple Reaction Monitoring (MRM) acquisition mode. MassLynx software version 4.0 was used for data acquisition and processing.

[3] = Critical micellar concentration by surface tension (maximum bubble-pressure); assay type: physicochemical; details: for CMC NaCl 0.15M: in NaCl 0.15 M; for CMC H2O: in water
Experimental: This value was determined by surface tension measurements using a maximum bubble-pressure method. The tensiometer was a Sensadyne 6000 (Chem-Dyne Research Corp., Milwaukee, Wis.) equipped with two glass probes of 0.5 and 4.0 mm diameters connected to a source of nitrogen. The bubble frequency was 1 bubble/second in distilled water at 26° C. (P=2.7 atm) and the calibration was made with double-distilled water and methanol. The surface tension of BA sodium salts solutions both in water and in NaCl 0.15 M was measured at various concentrations range, 0.2-75 mM and 0.3-100 mM respectively. The surface tension values were plotted against the logarithm of the bile salt concentration; the regression lines corresponding to the two parts of the curve (monomeric and micellar phases) were calculated using the method of least squares, and the intersection of the lines was taken as the CMC value.

[4] = system: pancreatic esterases (pancreatin); assay: Metabolic stability in simulated duodenal/pancreatic fluid (USP); assay type: in vitro ADME, porcine
Experimental: Simulated pancreatic fluid was prepared by dissolving 10 g/L Pancreatin (Sigma P8096: pancreatin from porcine pancreas, activity 1×USP specifications) in 0.05M phosphate buffer, pH=7.2±0.1. […] After incubation, a 2-mL aliquot of each solution was added with 2 mL of 0.1M NaOH and subjected to bile acids extraction by SPE and analysis by thin-layer chromatography and mass spectrometry as described above.

[5] = 1-Octanol/water partition coefficient, shake-flask; details: pH 8, 0.1 mM bile salt
Experimental: (§1) 1-Octanol/water partition coefficient (log P) was evaluated using a conventional shake-flask procedure. […] The aqueous buffer was previously pre-saturated with 1-octanol, 5 ml of 1-octanol pre-saturated with water was then added and the samples were left to equilibrate for 2 weeks under continuous stirring at room temperature After centrifugation the two phases were carefully separated. BA concentration in the water phase was measured with HPLC-ESI-MS/MS using C18 column (150 mm×2 mm i.d., 4 μm) and mobile phases: A: water containing 15 mM acetic acid pH 5, B: acetonitrile. The flow rate was 150 μl/min and the column was maintained at 45° C. The mass spectrometry acquisition was performed in the multiple reaction monitoring mode using the ESI source in negative ionization.

[6] = system: Intestinal bacteria (human stools cultures); assay: Metabolic stability in human stools culture (7α-dehydroxylation); assay type: in vitro ADME
Experimental: Homogenized fresh human stools (500 mg) were transferred into sterile vials to which 5 mL of sterilized chopped meat-glucose medium (Scott Lab., Fiskville, R.I.) was added. BA were then added at a final concentration of 0.05 mM. Vials were incubated at 37 C; then, at 0, 4, 8, 16, 20, 24, and 72 h after the addition of the BA, the reaction was stopped with 150 L of 30% KOH. The samples were centrifuged at 3500 rpm for 10 min; from the supernatant the BA were isolated by C-18 solid-phase extraction and analyzed by TLC and HPLC-ES-MS/MS. Thin-layer chromatography (TLC), utilizing silica gel 0.25 m thickness plates (Merck, Darmstat, Germany), was employed as the first screening test. The solvent system used for the separation of conjugated BA was composed of propionic acid/isoamyl acetate/water/N-propanol (3:4:1:2, v/v/v/v; solvent I), and that of the unconjugated BA was acetic acid/carbon tetrachloride/isopropyl ether/isoamyl acetate/water/N-propanol/benzene (1:4:6:8:2:2, v/v/v/v/v/v; solvent II).

[7] = system: ANIT-induced cholestasis; details: previous unpublished studies by Fiorucci et al.; cited from earlier work
[8] = Water solubility of protonated bile acids; details: 0.1 M HCl, pH 1, simulated gastric fluid, thermodynamic from solid
Experimental: (§2) Solid BA were suspended in 5 ml of 0.1 M HCl. The saturated solutions, after incubation for 1 week, were filtered on a Millipore filter (0.22 μm) and the concentration of BA was measured by HPLC-ESI-MS/MS using C18 column (150 mm×2 mm i.d., 4 μm) and mobile phases of water containing 15 mM acetic acid pH 5 and acetonitrile. The flow rate was 150 μl/min. The mass spectrometry acquisition was performed in the multiple reaction monitoring mode using the ESI source in negative ionization. Water solubility was expressed as μmol/liter

[9] = Critical micellar pH; assay type: physicochemical; details: CMpH=pKa+log CMC/WS
Text: This value can be experimentally determined by evaluating the pH at which a given BA starts to precipitate from a micellar solution. It can be calculated from the CMC Water solubility of the protonated species and pKa using the formula: CMpH=pKa+log CMC/WS.

[10] = value from literature; cited from earlier work
[11] = values from literature, cited from earlier work; for CMC NaCl 0.15M: in NaCl 0.15 M; for CMC H2O: in water
[12] = pH 8
Experimental: as §1

[13] = pH 1
Experimental: as §2

[14] = biological target: T2, FXR (Homo sapiens, UniProt Q96RI1); assay: Luciferase transactivation assay in transfected HepG2 cells; assay type: cell-based; details: ammonium salt
T2 construct: expressed in transfected cells; host or cells: HepG2
T2 sequence (Q96RI1 1-486): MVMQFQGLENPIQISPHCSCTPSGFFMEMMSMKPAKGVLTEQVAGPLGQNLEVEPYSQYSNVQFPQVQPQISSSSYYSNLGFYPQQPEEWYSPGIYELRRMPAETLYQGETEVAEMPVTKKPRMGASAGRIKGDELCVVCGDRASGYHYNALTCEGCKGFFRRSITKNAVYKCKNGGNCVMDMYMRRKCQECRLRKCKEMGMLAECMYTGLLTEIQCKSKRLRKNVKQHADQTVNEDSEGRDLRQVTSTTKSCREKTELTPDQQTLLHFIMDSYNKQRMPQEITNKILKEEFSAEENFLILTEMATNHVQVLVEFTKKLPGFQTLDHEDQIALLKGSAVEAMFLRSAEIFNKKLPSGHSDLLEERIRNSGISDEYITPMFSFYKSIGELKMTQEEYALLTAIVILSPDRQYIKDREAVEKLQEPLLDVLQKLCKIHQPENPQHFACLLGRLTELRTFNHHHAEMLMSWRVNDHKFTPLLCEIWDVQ
T2 sequence (P19793 1-462 partner): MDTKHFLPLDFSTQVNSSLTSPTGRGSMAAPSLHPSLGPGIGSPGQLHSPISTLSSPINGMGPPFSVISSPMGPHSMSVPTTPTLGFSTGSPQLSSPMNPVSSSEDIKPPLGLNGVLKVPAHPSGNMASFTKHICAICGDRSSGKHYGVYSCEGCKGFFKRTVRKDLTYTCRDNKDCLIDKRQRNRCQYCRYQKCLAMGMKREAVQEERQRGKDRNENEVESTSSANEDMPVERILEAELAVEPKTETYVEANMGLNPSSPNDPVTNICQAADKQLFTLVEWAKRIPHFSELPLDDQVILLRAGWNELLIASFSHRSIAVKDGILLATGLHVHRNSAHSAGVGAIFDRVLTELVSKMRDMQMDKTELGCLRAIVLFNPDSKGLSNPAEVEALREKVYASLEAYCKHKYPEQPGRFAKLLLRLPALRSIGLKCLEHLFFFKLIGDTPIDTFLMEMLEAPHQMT
Experimental: Briefly, for luciferase assay, HepG2 cells were cultured in E-MEM supplemented with 1% penicillin/streptomycin, 1% L-glutamine and 10% fetal bovine serum (high glucose) (CELBIO). Cells were grown at 37° C. in 5% CO2. All the transfections were making using a calcium phosphate coprecipitation method in the presence of 25 μM chloroquine as inhibitor for DNA degradation. Transient transfections were performed using 500 ng of reporter vector phsp27-TKLUC, 200 ng pCMV-βgal, as internal control for transfection efficiency, and 50 ng of each receptor expression plasmid pSG5-FXR, pSG5-RXR. The pGEM vector was added to normalize the amounts of DNA transfected in each assay (2.5 μg). The transfection efficiency was evaluated by β-gal expression, obtained by co-transfecting the cells with pCMV-β-gal plasmid. […] Control cultures received vehicle (0.1% DMSO) alone. Cells were lysed in 100 μl diluted reporter lysis buffer (Promega), and 0.2 μl cellular lisate was assayed for luciferase activity using Luciferase Assay System (Promega). Luminescence was measured using an automated luminometer. Luciferase activities were normalized for transfection efficiencies by dividing the relative light units by β-galactosidase activity.

[15] = system: FXR related genes in liver; assay: FXR target gene expression in liver of intact mice (Real-Time PCR); assay type: in vivo, Balb/c mice; details: 4 days
Text: Six- to eight-week old female Balb/c mice were obtained from Charles River (Charles River Laboratories, Inc., Wilmington, Mass.). […] All procedures in this study were approved by the Animal Study Committees of the University of Perugia (Italy) according to governmental guidelines for animal care. […] At the end of the experiment mice were sacrificed and liver was removed to perform Real Time PCR analysis of FXR target genes.

[16] = system: ANIT-induced cholestasis; assay: ANIT-induced cholestasis in rat; assay type: in vivo, Wistar rats; details: ANIT treated rats, ammonium salt
Experimental: Wistar Rats studies were approved by the Animal Study Committee of the University of Perugia. Male Wistar rats (200-250 g) were obtained from Charles River Breeding Laboratories (Portage, Mich.) and maintained on standard laboratory rat chow on a 12-h light/dark cycle. […] Control rats (N=4) were administered vehicle (physiologic solution I.P.). At the end of the study, rats were sacrificed under anaesthesia with sodium pentobarbital (50 mg/kg i.p.) and terminally bled via cardiac puncture; the liver was removed and weighted for examination and blood samples were taken. Rat genes expression was evaluated by quantitative real-time polymerase chain reaction (RT-PCR) as previously described herein.

[17] = 5 mg/kg intraperitoneal, ammonium salt

## CC[C@H]1[C@@H](O)C2C3CCC(C(C)CCOS(=O)(=O)[O-])[C@@]3(C)CCC2[C@@]2(C)CC[C@@H](O)C[C@@H]12.[Na+] (stereo partly drawn) [INT-1103, 3α,7α,23-trihydroxy-6α-ethyl-24-nor-5β-cholan-23-sulphate sodium salt]
[1]
  % Binding (albumin): 85%
[2]
  Main form / hepatic metabolite secreted in bile: 3-glucoronide
[2]; iv infusion 3 umol/Kg/min, bile collected 7 hours
  Amount of administered dose secreted into bile: 30-40%
[3]
  ST50: Surface Tension of 50 mM aqueous solution: 43.3 Dyne/cm
  STCMC: Surface Tension at CMC in water: 47.9 Dyne/cm
  CMC NaCl 0.15M: 1.3 mM
  CMC H2O: 3.9 mM
[4]; 50 μM, 37° C., up to 240 min
  Stability in simulated pancreatic fluid: very stable
[4]; simulated pancreatic fluid
  Hydrolysis of ester bond (sulphate) by pancreatic esterases: not hydrolyzed
[5]
  LogPA− (1-octanol-water partition coefficient, ionized species): 2.0
[6]
  Stability in human stool cultures: very stable

## CC[C@H]1[C@@H](O)[C@@H]2[C@H](CC[C@]3(C)[C@@H]([C@H](C)CCC(=O)O)CC[C@@H]23)[C@@]2(C)CC[C@@H](O)C[C@@H]12 [INT-747, 3α,7α-dihydroxy-6α-ethyl-5β-cholan-24-oic acid]
[1]
  % Binding (albumin): 96%
[2]
  Main form / hepatic metabolite secreted in bile: taurine conjugate
[7]
  Reduction of liver injury in ANIT model: not effective
[3]
  ST50: Surface Tension of 50 mM aqueous solution: 43.2 Dyne/cm
  STCMC: Surface Tension at CMC in water: 48.8 Dyne/cm
  CMC NaCl 0.15M: 2.9 mM
  CMC H2O: 4.5 mM
[3]; in the presence of Na+ 0.15 M
  Concentration at which a gel phase forms: > 60000 µM
[8]
  solubility at 1 week: 9 µM (≈ 3.79 µg/mL)
[5]
  LogPA− (1-octanol-water partition coefficient, ionized species): 2.5
[6]
  Stability in human stool cultures: very stable
[9]
  CMpH (critical micellar pH): 7.6
[9]; listed as UPF 747
  CMpH (critical micellar pH): 7.7

## C[C@H](CCC(=O)NCCS(=O)(=O)O)[C@H]1CC[C@H]2[C@@H]3[C@@H](O)C[C@@H]4C[C@H](O)CC[C@]4(C)[C@H]3CC[C@]12C [TUDCA]
[1]
  % Binding (albumin): 67%
[10]
  LogPA− (1-octanol-water partition coefficient, ionized species): 1.0*
[11]
  CMC NaCl 0.15M: 2.2* mM
  CMC H2O: 8.0* mM

## C[C@H](CCC(=O)O)[C@H]1CC[C@H]2[C@@H]3[C@@H](O)C[C@@H]4C[C@H](O)CC[C@]4(C)[C@H]3CC[C@]12C [UDCA]
[1]
  % Binding (albumin): 94%
[12]
  LogPA− (1-octanol-water partition coefficient, ionized species): 2.2
[3]
  ST50: Surface Tension of 50 mM aqueous solution: 50.4 Dyne/cm
  STCMC: Surface Tension at CMC in water: 63.0 Dyne/cm
  CMC NaCl 0.15M: 6.0 mM
  CMC H2O: 26 mM
[13]
  Water Solubility: 7.5 µM
[9]
  CMpH (critical micellar pH): 8.4

## CC[C@H]1[C@@H](O)C2C3CCC(C(C)CCOS(=O)(=O)O)[C@@]3(C)CCC2[C@@]2(C)CC[C@@H](O)C[C@@H]12 (stereo partly drawn) [UPF-987, 3α,7α,23-trihydroxy-6α-ethyl-24-nor-5β-cholan-23-sulphate triethyl ammonium salt]
[14]
  Transactivation of FXR: transactivates FXR
[15]; [17]
  Liver BSEP expression: potent induction; also recorded: induces liver
  Liver SHP expression: potent induction; also recorded: induces liver
[15]; 5 mg/kg
  Downregulation of liver Cyp7a1: 60-70%
[15]; 5 mg/kg, ammonium salt
  Liver FAS mRNA expression: reduced
[15]; Mus musculus, 96 h, read-out: Inhibition of liver SREBP-1c
  inhibition at 5 mg/kg: 90%
[16]; UPF-987 5 and 3 mg/kg daily
  Liver injury / cholestasis (plasma AST, γGT, alkaline phosphatase, cholesterol): attenuates liver injury; also recorded: reduces ANIT
[16]
  Liver expression of NTCP, CYP7A1 and BSEP: modulates liver

## C[C@H](CCC(=O)O)[C@H]1CC[C@H]2[C@@H]3[C@H](O)C[C@@H]4C[C@H](O)CC[C@]4(C)[C@H]3CC[C@]12C [CDCA, chenodeoxycholic acid]
[1]
  % Binding (albumin): 93%
[3]
  ST50: Surface Tension of 50 mM aqueous solution: 48.5 Dyne/cm
  STCMC: Surface Tension at CMC in water: 55.6 Dyne/cm
  CMC NaCl 0.15M: 3.0 mM
  CMC H2O: 7.5 mM
[5]
  LogPA− (1-octanol-water partition coefficient, ionized species): 2.2
[6]; human stool cultures
  Half-life time: one
[6]; human stool cultures, after 8 hours of incubation
  Metabolism (7-dehydroxylation to lithocholic acid): almost completely metabolized
[9]
  CMpH (critical micellar pH): 7.6

## C[C@H](CCC(=O)NCCS(=O)(=O)O)[C@H]1CC[C@H]2[C@@H]3[C@H](O)C[C@@H]4C[C@H](O)CC[C@]4(C)[C@H]3CC[C@]12C [TCDCA]
[11]
  CMC NaCl 0.15M: 3.0* mM
  CMC H2O: 7.0* mM
[5]
  LogPA− (1-octanol-water partition coefficient, ionized species): 0.9
